The test system of the experiment is KMS.12.BM cells. The experiment in a line: KMS.12.BM cell viability assay. It is filed as cell-based. The following applies: KMS.12.BM human myeloma cells, 3 days, Cell Titer-GLO ATP quantitation, read-out: KMS cellular IC50. In a few lines: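 Human myeloma KMS.12.BM cells, 5000 per well in RPMI/10% FBS, exposed 3 days to compound concentration range. Viability from ATP-based Cell Titer-GLO luminescence; IC50 derived.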

Structures are written as SMILES. Structures can show the parent of a compound that is named as a salt. Where two headings read alike, the source gives them in different places.

As for `CNC(=O)c1cc2c(ccc3nnc(C)n32)n1Cc1cccc(Cl)c1` [Example 99, 6-(3-chlorobenzyl)-N,1-dimethyl-6H-pyrrolo[2,3-e][1,2,4]triazolo[4,3-a]pyridine-7-carboxamide], the IC50 (72 h) was at most 1000 nM.
Regarding `Cc1nnc2ccc3c(cc(C(=O)N[C@H]4C[C@H](C#N)C4)n3Cc3ccccc3)n12` [Example 100, 6-benzyl-N-(trans-3-cyanocyclobutyl)-1-methyl-6H-pyrrolo[2,3-e][1,2,4]triazolo[4,3-a]pyridine-7-carboxamide], the IC50 (72 h) was 1000 to 10000 nM.
Turning to `Cc1nnc2ccc3c(cc(C(=O)N[C@H]4C[C@@H](C#N)C4)n3Cc3ccccc3)n12` [Example 101, 6-benzyl-N-(cis-3-cyanocyclobutyl)-1-methyl-6H-pyrrolo[2,3-e][1,2,4]triazolo[4,3-a]pyridine-7-carboxamide], the IC50 (72 h) fell in the range of 1000 to 10000 nM.
Consider `CNC(=O)c1cc2c(ccc3nnc(C)n32)n1Cc1cccc(F)c1` [Example 102, 6-(3-fluorobenzyl)-N,1-dimethyl-6H-pyrrolo[2,3-e][1,2,4]triazolo[4,3-a]pyridine-7-carboxamide], for which the IC50 (72 h) is at most 1000 nM.
Turning to `Cc1nnc2ccc3c(cc(-c4ccn(CCC(=O)N(C)C)n4)n3Cc3cccc(Cl)c3)n12` [Example 103, 3-{3-[6-(3-chlorobenzyl)-1-methyl-6H-pyrrolo[2,3-e][1,2,4]triazolo[4,3-a]pyridin-7-yl]-1H-pyrazol-1-yl}-N,N-dimethylpropanamide], the IC50 is at most 1000 nM.
In the case of `Cc1nnc2ccc3c(cc(-c4ccn(CCC(=O)N5CCC5)n4)n3Cc3cccc(Cl)c3)n12` [Example 104, 7-[1-(3-azetidin-1-yl-3-oxopropyl)-1H-pyrazol-3-yl]-6-(3-chlorobenzyl)-1-methyl-6H-pyrrolo[2,3-e][1,2,4]triazolo[4,3-a]pyridine], the IC50 (72 h) was at most 1000 nM.
As for `Cc1nnc2ccc3c(cc(-c4ccn(CCC(=O)N5CCN(C)CC5)n4)n3Cc3cccc(Cl)c3)n12` [Example 105, 6-(3-chlorobenzyl)-1-methyl-7-{1-[3-(4-methylpiperazin-1-yl)-3-oxopropyl]-1H-pyrazol-3-yl}-6H-pyrrolo[2,3-e][1,2,4]triazolo[4,3-a]pyridine], the IC50 (72 h) is at most 1000 nM.
Same read-out and setting: in the case of `CC(=O)N1CC(CC#N)(n2ccc(-c3cc4c(ccc5nnc(C)n54)n3Cc3cccc(Cl)c3)n2)C1` [Example 106, (1-acetyl-3-{3-[6-(3-chlorobenzyl)-1-methyl-6H-pyrrolo[2,3-e][1,2,4]triazolo[4,3-a]pyridin-7-yl]-1H-pyrazol-1-yl}azetidin-3-yl)acetonitrile] it was at most 1000 nM; in that of `Cc1nnc2ccc3c(cc(-c4ccn(C5(CC#N)CN(S(C)(=O)=O)C5)n4)n3Cc3cccc(Cl)c3)n12` [Example 107, [3-{3-[6-(3-chlorobenzyl)-1-methyl-6H-pyrrolo[2,3-e][1,2,4]triazolo[4,3-a]pyridin-7-yl]-1H-pyrazol-1-yl}-1-(methylsulfonyl)azetidin-3-yl]acetonitrile], at most 1000 nM.
On the same count and under the same terms, the figure for `CC(=O)N1CC(n2ccc(-c3cc4c(ccc5nnc(C)n54)n3Cc3cccc(Cl)c3)n2)C1` [Example 108, 7-[1-(1-acetylazetidin-3-yl)-1H-pyrazol-3-yl]-6-(3-chlorobenzyl)-1-methyl-6H-pyrrolo[2,3-e][1,2,4]triazolo[4,3-a]pyridine] is at most 1000 nM; for `CCNC(=O)c1cc2c(ccc3nnc(C)n32)n1Cc1cccc(Cl)c1` [Example 113, 6-(3-Chlorobenzyl)-N-ethyl-1-methyl-6H-pyrrolo[2,3-e][1,2,4]triazolo[4,3-a]pyridine-7-carboxamide trifluoroacetate salt] it is at most 1000 nM.
Take `Cc1nnc2ccc3c(cc(C(=O)NCC4CC4)n3Cc3cccc(Cl)c3)n12` [Example 114, 6-(3-Chlorobenzyl)-N-(cyclopropylmethyl)-1-methyl-6H-pyrrolo[2,3-e][1,2,4]triazolo[4,3-a]pyridine-7-carboxamide trifluoroacetate salt]: the IC50 (72 h) was at most 1000 nM.
Regarding `Cc1nnc2ccc3c(cc(C(=O)NCCO)n3Cc3cccc(Cl)c3)n12` [Example 117, 6-(3-Chlorobenzyl)-N-(2-hydroxyethyl)-1-methyl-6H-pyrrolo[2,3-e][1,2,4]triazolo[4,3-a]pyridine-7-carboxamide trifluoroacetate salt], the IC50 (72 h) was at most 1000 nM.
As to `Cc1nnc2ccc3c(cc(C(=O)NCCN4CCOCC4)n3Cc3cccc(Cl)c3)n12` [Example 119, 6-(3-Chlorobenzyl)-1-methyl-N-(2-morpholin-4-ylethyl)-6H-pyrrolo[2,3-e][1,2,4]triazolo[4,3-a]pyridine-7-carboxamide trifluoroacetate salt], the IC50 (72 h) was at most 1000 nM.
As for `CCNC(=O)c1cc2c(ccc3nnc(C)n32)n1Cc1cccc(CN2CCC2)c1` [Example 121, 6-[3-(Azetidin-1-ylmethyl)benzyl]-N-ethyl-1-methyl-6H-pyrrolo[2,3-e][1,2,4]triazolo[4,3-a]pyridine-7-carboxamide bis(trifluoroacetate) salt], the IC50 (72 h) was at most 1000 nM.
For `CNC(=O)c1cc2c(ccc3nnc(C)n32)n1Cc1cccc(CN2CCC2)c1` [Example 122, 6-[3-(Azetidin-1-ylmethyl)benzyl]-N,1-dimethyl-6H-pyrrolo[2,3-e][1,2,4]triazolo[4,3-a]pyridine-7-carboxamide bis(trifluoroacetate) salt], the IC50 (72 h) was 1000 to 10000 nM.
As for `Cc1nnc2ccc3c(cc(C(=O)NCCCO)n3Cc3ccccc3)n12` [Example 123, 6-Benzyl-N-(3-hydroxypropyl)-1-methyl-6H-pyrrolo[2,3-e][1,2,4]triazolo[4,3-a]pyridine-7-carboxamide trifluoroacetate salt], the IC50 (72 h) was at most 1000 nM.
For the compound `Cc1nnc2ccc3c(cc(C(=O)NCC(C)C)n3Cc3ccccc3)n12` [Example 125, 6-Benzyl-N-isobutyl-1-methyl-6H-pyrrolo[2,3-e][1,2,4]triazolo[4,3-a]pyridine-7-carboxamide trifluoroacetate], the IC50 (72 h) is at most 1000 nM.
`Cc1nnc2ccc3c(cc(C(=O)NCc4ccncc4)n3Cc3ccccc3)n12` [Example 126, 6-Benzyl-1-methyl-N-(pyridin-4-ylmethyl)-6H-pyrrolo[2,3-e][1,2,4]triazolo[4,3-a]pyridine-7-carboxamide bis(trifluoroacetate) salt]: for the setting “72 h”, the IC50 was at most 1000 nM.
As to `Cc1nnc2ccc3c(cc(C(=O)NCCCO)n3Cc3cccc(Cl)c3)n12` [Example 127, 6-(3-Chlorobenzyl)-N-(3-hydroxypropyl)-1-methyl-6H-pyrrolo[2,3-e][1,2,4]triazolo[4,3-a]pyridine-7-carboxamide trifluoroacetate salt], where the note is “72 h”, the IC50 is at most 1000 nM.
`Cc1nnc2ccc3c(cc(C(=O)NCC(C)C)n3Cc3cccc(Cl)c3)n12` [Example 129, 6-(3-Chlorobenzyl)-N-isobutyl-1-methyl-6H-pyrrolo[2,3-e][1,2,4]triazolo[4,3-a]pyridine-7-carboxamide trifluoroacetate salt]: the half-inhibitory concentration (IC50) (72 h) is at most 1000 nM.
Turning to `Cc1nnc2ccc3c(cc(C(=O)NCc4ccncc4)n3Cc3cccc(Cl)c3)n12` [Example 130, 6-(3-Chlorobenzyl)-1-methyl-N-(pyridin-4-ylmethyl)-6H-pyrrolo[2,3-e][1,2,4]triazolo[4,3-a]pyridine-7-carboxamide bis(trifluoroacetate) salt], the IC50 (72 h) is at most 1000 nM.
Still for that read-out and setting: the figure for `CNC(=O)c1cc2c(ccc3nnc(C)n32)n1Cc1cc(Cl)cc(CN2CCC2)c1` [Example 131, 6-[3-(Azetidin-1-ylmethyl)-5-chlorobenzyl]-N,1-dimethyl-6H-pyrrolo[2,3-e][1,2,4]triazolo[4,3-a]pyridine-7-carboxamide bis(trifluoroacetate) salt] is at most 1000 nM; for `CNC(=O)c1cc2c(ccc3nnc(C)n32)n1Cc1cc(Cl)cc(CN2CCCC2)c1` [Example 132, 6-[3-Chloro-5-(pyrrolidin-1-ylmethyl)benzyl]-N,1-dimethyl-6H-pyrrolo[2,3-e][1,2,4]triazolo[4,3-a]pyridine-7-carboxamide 2.5×(trifluoroacetate) salt] it is at most 1000 nM; for `CCNC(=O)c1cc2c(ccc3nnc(C)n32)n1Cc1cc(Cl)cc(CN2CCCC2)c1` [Example 133, 6-[3-Chloro-5-(pyrrolidin-1-ylmethyl)benzyl]-N-ethyl-1-methyl-6H-pyrrolo[2,3-e][1,2,4]triazolo[4,3-a]pyridine-7-carboxamide bis(trifluoroacetate) salt] it is at most 1000 nM.
`CNC(=O)c1cc2c(ccc3nnc(C)n32)n1Cc1cc(Cl)cc(CN2CCC(F)(F)C2)c1` [Example 134, 6-{3-Chloro-5-[(3,3-difluoropyrrolidin-1-yl)methyl]benzyl}-N,1-dimethyl-6H-pyrrolo[2,3-e][1,2,4]triazolo[4,3-a]pyridine-7-carboxamide 2.4×(trifluoroacetate) salt]: the IC50 (72 h) was at most 1000 nM.
The same measure, in the same setting: in the case of `CNC(=O)c1cc2c(ccc3nnc(C)n32)n1Cc1cc(Cl)cc(CN2CC(C)(C)C2)c1` [Example 135, 6-{3-Chloro-5-[(3,3-dimethylazetidin-1-yl)methyl]benzyl}-N,1-dimethyl-6H-pyrrolo[2,3-e][1,2,4]triazolo[4,3-a]pyridine-7-carboxamide bis(trifluoroacetate) salt] it was at most 1000 nM; in that of `CNC(=O)c1cc2c(ccc3nnc(C)n32)n1Cc1cccc(C(F)(F)F)c1` [Example 136, N,1-dimethyl-6-[3-(trifluoromethyl)benzyl]-6H-pyrrolo[2,3-e][1,2,4]triazolo[4,3-a]pyridine-7-carboxamide trifluoroacetate salt], at most 1000 nM; in that of `CCNC(=O)c1cc2c(ccc3nnc(C)n32)n1Cc1cccc(C(F)(F)F)c1` [Example 137, N-Ethyl-1-methyl-6-[3-(trifluoromethyl)benzyl]-6H-pyrrolo[2,3-e][1,2,4]triazolo[4,3-a]pyridine-7-carboxamide trifluoroacetate salt], at most 1000 nM.
